Source: article PMC9574050, “Design, synthesis, and insecticidal activity of a novel series of flupyrimin analogs bearing 1-aryl-1H-pyrazol-4-yl subunits” (Frontiers in Chemistry, 2022)
Read-outs that look alike come from different tables or passages of the source.

What was measured:
Assay type in all cases: in vivo
Helicoverpa armigera = assay: Insecticidal activity against Helicoverpa armigera (soaking method); settings: Helicoverpa armigera, 48 h, read-out: Mortality rate (%) H. armigera
From the text: (§1) Preparation of test agent. Dissolve accurately weighed tested compound in DMF to prepare 1% mother liquor, and then dilute it with distilled water containing 0.1% Tween-80 to corresponding concentrations for later use.
Insecticidal activity against Helicoverpa armigera. The soaking method was adopted ([Yang et al., 2022]). After soaking a proper amount of corn leaves for 10 s, they were placed in a plastic Petri dish with filter paper and dried naturally in the shade. Ten larvae of the 2nd instar H. armigera were attached to each dish and placed in an observation room at 26°C with light (16/8 h). The result was counted 2 days later, and the no-response insect body when it was lightly touched with a brush was regarded as dead. Each treatment was repeated 3 times, and DMF without the tested compound was used as a blank control.
(§2) The insecticidal activities of the test compounds against the abovementioned five insects were calculated by the following formula: P1=(K/N)×100, (1) P2=(Pt−P0)/(1−P0)×100, (2) where P1 is the mortality rate; K is the dead insect number; N is the total number of experimental insects; P2 is the corrected mortality rate; Pt is the mortality rate of treatment; P0 is the mortality rate of CK. If the mortality rate of CK is less than 5%, without the required correction, and if the mortality rate of CK is between 5 and 20%, P2 should be calculated according to formula II.

Aphis craccivora = assay: Insecticidal activity against Aphis craccivora (Potter spray tower); settings: read-out: Mortality rate (%) A. craccivora
Description: as §1
Insecticidal activity against Aphis craccivora ([Liu et al., 2022]). About 30 nymphs of alfalfa aphid were placed on a horsebean leaf dish, and then 2.5 ml of the tested agent was sprayed with Potter spray tower. After treatment, they were cultured in an observation room at 20–22°C. The result was counted 24 h later, and the no-response insect body when it was lightly touched with tweezers was regarded as dead. Each treatment was repeated three times, and DMF without the tested compound was used as a blank control.
as §2

Chilo suppressalis = assay: Insecticidal activity against Chilo suppressalis (soaking method); settings: 96 h, read-out: Mortality rate (%) C. suppressalis
From the text: as §1
Insecticidal activity against Chilo suppressalis ([Huang et al., 2022]). The soaking method was adopted. The Zizania latifolia slices were soaked in a tested solution for 10 s, then taken out, and placed in a plastic Petri dish with filter paper to naturally dry in the shade. […] The result was counted 4 days later, and the no-response insect body when it was lightly touched with a brush was regarded as dead. Each treatment was repeated three times, and DMF without the tested compound was used as a blank control.
as §2

Plutella xylostella = assay: Insecticidal activity against Plutella xylostella (soaking method); settings: Plutella xylostella, 48 h, read-out: Mortality rate (%) P. xylostella
From the text: as §1
Insecticidal activity against Plutella xylostella ([Yang et al., 2021]). The soaking method was adopted. After soaking a proper amount of radish leaves for 10 s, it was placed in a plastic Petri dish with filter paper and dried naturally in the shade. Each dish was inoculated with 10 2nd instar P. xylostella larvae and placed in an observation room at 22°C with light (16/8 h). The result was counted 2 days later, and the no-response insect body when it was lightly touched with a brush was regarded as dead. Each treatment was repeated three times, and DMF without the tested compound was used as a blank control.
as §2

Nilaparvata lugens = assay: Insecticidal activity against Nilaparvata lugens (Potter spray tower); settings: 24 h, read-out: Mortality rate (%) N. lugens
From the text: as §1
Insecticidal activity against Nilaparvata lugens ([Ghareeb et al., 2021]). The seedlings with two leaves and one heart were placed in a Petri dish with a bottom diameter of 3 cm and covered with white sand. After the 3rd instar nymphae of N. lugens were stunned by CO2, about 15 nymphae were received in each dish, and then 2.5 ml of the tested agent was sprayed with Potter spray tower. The mortality of N. lugens was investigated 1 day after the treatment. Each treatment was repeated three times, and DMF without the tested compound was used as a blank control.
as §2

[1] = 400 μg/mL, 2nd instar larvae, counted 2 days later
[2] = 400 μg/mL, 3rd instar larvae, counted 4 days later
[3] = 400 μg/mL, 3rd instar nymphae, 1 day after treatment
[4] = 25 μg/mL, 2nd instar larvae, counted 2 days later
[5] = 100 μg/mL, 2nd instar larvae, counted 2 days later

Structure (SMILES)	mortality at 400 µg/mL (Helicoverpa armigera; [1])	mortality at 400 µg/mL (Aphis craccivora; 400 μg/mL, counted 24 h later)	mortality at 400 µg/mL (Chilo suppressalis; [2])	mortality at 400 µg/mL (Plutella xylostella; [1])	mortality at 400 µg/mL (Nilaparvata lugens; [3])	mortality at 25 µg/mL (Plutella xylostella; [4])	mortality at 100 µg/mL (Plutella xylostella; [5])	other results
CNC(=O)c1cc(Cl)cc(C)c1NC(=O)c1cc(Br)nn1-c1ncccc1Cl [CAT, chlorantraniliprole, reference compound]								mortality at 400 µg/mL (Helicoverpa armigera): 100%; mortality at 400 µg/mL (Aphis craccivora; 24 h): 0%; mortality at 100 µg/mL (Chilo suppressalis): 100%; mortality at 400 µg/mL (Chilo suppressalis): 100%; mortality at 25 µg/mL (Plutella xylostella): 100%; mortality at 100 µg/mL (Plutella xylostella): 100%; mortality at 400 µg/mL (Plutella xylostella): 100%; mortality at 400 µg/mL (Nilaparvata lugens): 0%
O=C(/N=c1\ccccn1Cc1cnn(-c2ccccc2)c1C(F)(F)F)C(F)(F)F [Compound A1, (E)-2,2,2-trifluoro-N-(1-((1-phenyl-5-(trifluoromethyl)-1H-pyrazol-4-yl)methyl)pyridin-2(1H)-ylidene)acetamide]	0%	0%	0%	76.7%	0%			
O=C(/N=c1\ccccn1Cc1cnn(-c2cccc(F)c2)c1C(F)(F)F)C(F)(F)F [Compound A3, (E)-2,2,2-trifluoro-N-(1-((1-(3-fluorophenyl)-5-(trifluoromethyl)-1H-pyrazol-4-yl)methyl)pyridin-2(1H)-ylidene)acetamide]	0%	0%	0%	100%	0%	0%	86.7%	
O=C(/N=c1\ccccn1Cc1cnn(-c2ccc(Cl)cc2)c1C(F)(F)F)C(F)(F)F [Compound A4, (E)-N-(1-((1-(4-chlorophenyl)-5-(trifluoromethyl)-1H-pyrazol-4-yl)methyl)pyridin-2(1H)-ylidene)-2,2,2-trifluoroacetamide]	0%	0%	0%	0%	0%			
O=C(/N=c1\ccccn1Cc1cnn(-c2ccc(C(F)(F)F)cc2)c1C(F)(F)F)C(F)(F)F [Compound A5, (E)-2,2,2-trifluoro-N-(1-((5-(trifluoromethyl)-1-(4-(trifluoromethyl)phenyl)-1H-pyrazol-4-yl)methyl)pyridin-2(1H)-ylidene)acetamide]	0%	0%	0%	73.3%	0%			
O=C(/N=c1\ccccn1Cc1cnn(-c2cccc(Cl)c2)c1C(F)F)C(F)(F)F [Compound A6, (E)-N-(1-((1-(3-chlorophenyl)-5-(difluoromethyl)-1H-pyrazol-4-yl)methyl)pyridin-2(1H)-ylidene)-2,2,2-trifluoroacetamide]	0%	0%	0%	50%	100%			mortality at 100 µg/mL (Nilaparvata lugens; 100 μg/mL, 3rd instar nymphae, 1 day after treatment): 0%
O=C(/N=c1\ccccn1Cc1cnn(-c2cccc(F)c2)c1C(F)F)C(F)(F)F [Compound A7, (E)-N-(1-((5-(difluoromethyl)-1-(3-fluorophenyl)-1H-pyrazol-4-yl)methyl)pyridin-2(1H)-ylidene)-2,2,2-trifluoroacetamide]	0%	0%	0%	63.3%	0%			
O=C(/N=c1\ccccn1Cc1cnn(-c2ccc(F)cc2)c1C(F)F)C(F)(F)F [Compound A8, (E)-N-(1-((5-(difluoromethyl)-1-(4-fluorophenyl)-1H-pyrazol-4-yl)methyl)pyridin-2(1H)-ylidene)-2,2,2-trifluoroacetamide]	0%	0%	0%	0%	0%			
COCC(=O)/N=c1\ccccn1Cc1cnn(-c2ccccc2)c1C(F)(F)F [Compound B1, (E)-2-methoxy-N-(1-((1-phenyl-5-(trifluoromethyl)-1H-pyrazol-4-yl)methyl)pyridin-2(1H)-ylidene)acetamide]	0%	0%	0%	100%	48.9%	16.7%	100%	
COCC(=O)/N=c1\ccccn1Cc1cnn(-c2ccccc2Cl)c1C(F)(F)F [Compound B2, (E)-N-(1-((1-(2-chlorophenyl)-5-(trifluoromethyl)-1H-pyrazol-4-yl)methyl)pyridin-2(1H)-ylidene)-2-methoxyacetamide]	0%	0%	0%	100%	0%	> 70%	96.7%	
COCC(=O)/N=c1\ccccn1Cc1cnn(-c2cccc(F)c2)c1C(F)(F)F [Compound B3, (E)-N-(1-((1-(3-fluorophenyl)-5-(trifluoromethyl)-1H-pyrazol-4-yl)methyl)pyridin-2(1H)-ylidene)-2-methoxyacetamide]	0%	0%	0%	100%	0%	> 70%	100%	
COCC(=O)/N=c1\ccccn1Cc1cnn(-c2ccc(C(F)(F)F)cc2)c1C(F)(F)F [Compound B5, (E)-2-methoxy-N-(1-((5-(trifluoromethyl)-1-(4-(trifluoromethyl)phenyl)-1H-pyrazol-4-yl)methyl)pyridin-2(1H)-ylidene)acetamide]	0%	0%	0%	100%	0%	0%	100%	
O=C(/N=c1\ccccn1Cc1cnn(-c2ccc(C(F)(F)F)cc2)c1C(F)(F)F)C(F)(F)C(F)(F)F [Compound C5, (E)-2,2,3,3,3-pentafluoro-N-(1-((5-(trifluoromethyl)-1-(4-(trifluoromethyl)phenyl)-1H-pyrazol-4-yl)methyl)pyridin-2(1H)-ylidene)propanamide]	0%	0%	100%	70%				mortality at 100 µg/mL (Chilo suppressalis; 100 μg/mL, 3rd instar larvae, counted 4 days later): 0%
O=C(/N=c1\ccccn1Cc1cnn(-c2ccc(F)cc2)c1C(F)F)C(F)(F)C(F)(F)F [Compound C8, (E)-N-(1-((5-(difluoromethyl)-1-(4-fluorophenyl)-1H-pyrazol-4-yl)methyl)pyridin-2(1H)-ylidene)-2,2,3,3,3-pentafluoropropanamide]	0%	0%	0%		0%			
